ChEMBL document CHEMBL3632622, “Synthesis and biological evaluation of novel N-phenyl ureidobenzenesulfonate derivatives as potential anticancer agents. Part 2. Modulation of the ring B” (Eur J Med Chem, 2015)
One block for each compound: values may come before it. The source made the active and inactive calls. The calls are words filed in the database; no cut-off is given here.

Experiments:
[1] = Antiproliferative activity against human HT1080 cells assessed as growth inhibition incubated for 48 hrs by sulforhodamine B assay; assay type: functional, cell-based, HT-1080; settings: Homo sapiens, HT-1080, 48 h; read-out: IC50
M21 [2] = assay: Antiproliferative activity against human M21 cells assessed as growth inhibition incubated for 48 hrs by sulforhodamine B assay; assay type: functional, cell-based; settings: M21, 48 h
HT-29 = assay: Antiproliferative activity against human HT-29 cells assessed as growth inhibition incubated for 48 hrs by sulforhodamine B assay; assay type: functional, cell-based; settings: HT-29, 48 h
MCF7 = assay: Antiproliferative activity against human MCF7 cells assessed as growth inhibition incubated for 48 hrs by sulforhodamine B assay; assay type: functional, cell-based; settings: MCF7, 48 h
M21 [3] = assay: Cell cycle arrest in human M21 cells assessed as accumulation at subG1 phase at 6.5 uM after 24 hrs by DAPI staining-based flow cytometry (reference value: 1.5%); assay type: functional
M21 [4] = assay: Cell cycle arrest in human M21 cells assessed as accumulation at G0/G1 phase at 6.5 uM after 24 hrs by DAPI staining-based flow cytometry (reference value: 65.1%); assay type: functional
M21 [5] = assay: Cell cycle arrest in human M21 cells assessed as accumulation at S phase at 6.5 uM after 24 hrs by DAPI staining-based flow cytometry (reference value: 17.4%); assay type: functional
M21 [6] = assay: Cell cycle arrest in human M21 cells assessed as accumulation at G2/M phase at 6.5 uM after 24 hrs by DAPI staining-based flow cytometry (reference value: 16%); assay type: functional
M21 [7] = assay: Cell cycle arrest in human M21 cells assessed as accumulation at G0/G1 phase at 3.3 uM after 24 hrs by DAPI staining-based flow cytometry (reference value: 65.1%); assay type: functional
M21 [8] = assay: Cell cycle arrest in human M21 cells assessed as accumulation at S phase at 3.3 uM after 24 hrs by DAPI staining-based flow cytometry (reference value: 17.4%); assay type: functional
M21 [9] = assay: Cell cycle arrest in human M21 cells assessed as accumulation at G2/M phase at 3.3 uM after 24 hrs by DAPI staining-based flow cytometry (reference value: 16%); assay type: functional
M21 [10] = assay: Cell cycle arrest in human M21 cells assessed as accumulation at subG1 phase at 3.3 uM after 24 hrs by DAPI staining-based flow cytometry (reference value: 1.5%); assay type: functional
M21 [11] = assay: Induction DNA DSBs in human M21 cells assessed as increase in gamma H2AX foci at 3.3 uM incubated for 24 hrs by DAPI staining based immunocytochemistry; assay type: functional, cell-based
M21 [12] = assay: Cell cycle arrest in human M21 cells assessed as accumulation at subG1 phase at 48 uM after 24 hrs by DAPI staining-based flow cytometry (reference value: 1.5%); assay type: functional
M21 [13] = assay: Cell cycle arrest in human M21 cells assessed as accumulation at G0/G1 phase at 48 uM after 24 hrs by DAPI staining-based flow cytometry (reference value: 65.1%); assay type: functional
M21 [14] = assay: Cell cycle arrest in human M21 cells assessed as accumulation at S phase at 48 uM after 24 hrs by DAPI staining-based flow cytometry (reference value: 17.4%); assay type: functional
M21 [15] = assay: Cell cycle arrest in human M21 cells assessed as accumulation at G2/M phase at 48 uM after 24 hrs by DAPI staining-based flow cytometry (reference value: 16%); assay type: functional
M21 [16] = assay: Cell cycle arrest in human M21 cells assessed as accumulation at G0/G1 phase at 5.9 uM after 24 hrs by DAPI staining-based flow cytometry (reference value: 65.1%); assay type: functional
M21 [17] = assay: Cell cycle arrest in human M21 cells assessed as accumulation at S phase at 5.9 uM after 24 hrs by DAPI staining-based flow cytometry (reference value: 17.4%); assay type: functional
M21 [18] = assay: Cell cycle arrest in human M21 cells assessed as accumulation at G2/M phase at 5.9 uM after 24 hrs by DAPI staining-based flow cytometry (reference value: 16%); assay type: functional
M21 [19] = assay: Cell cycle arrest in human M21 cells assessed as accumulation at subG1 phase at 5.9 uM after 24 hrs by DAPI staining-based flow cytometry (reference value: 1.5%); assay type: functional
M21 [20] = assay: Induction DNA DSBs in human M21 cells assessed as increase in gamma H2AX foci at 15 uM incubated for 24 hrs by DAPI staining based immunocytochemistry; assay type: cell-based
M21 [21] = assay: Cell cycle arrest in human M21 cells assessed as accumulation at G0/G1 phase at 3.9 uM after 24 hrs by DAPI staining-based flow cytometry (reference value: 65.1%); assay type: functional
M21 [22] = assay: Cell cycle arrest in human M21 cells assessed as accumulation at S phase at 3.9 uM after 24 hrs by DAPI staining-based flow cytometry (reference value: 17.4%); assay type: functional
M21 [23] = assay: Cell cycle arrest in human M21 cells assessed as accumulation at G2/M phase at 3.9 uM after 24 hrs by DAPI staining-based flow cytometry (reference value: 16%); assay type: functional
M21 [24] = assay: Cell cycle arrest in human M21 cells assessed as accumulation at subG1 phase at 3.9 uM after 24 hrs by DAPI staining-based flow cytometry (reference value: 1.5%); assay type: functional
M21 [25] = assay: Induction DNA DSBs in human M21 cells assessed as increase in gamma H2AX foci at 3.9 uM incubated for 24 hrs by DAPI staining based immunocytochemistry; assay type: cell-based
M21 [26] = assay: Cell cycle arrest in human M21 cells assessed as accumulation at G0/G1 phase at 1.5 uM after 24 hrs by DAPI staining-based flow cytometry (reference value: 65.1%); assay type: functional
M21 [27] = assay: Cell cycle arrest in human M21 cells assessed as accumulation at S phase at 1.5 uM after 24 hrs by DAPI staining-based flow cytometry (reference value: 17.4%); assay type: functional
M21 [28] = assay: Cell cycle arrest in human M21 cells assessed as accumulation at G2/M phase at 1.5 uM after 24 hrs by DAPI staining-based flow cytometry (reference value: 16%); assay type: functional
M21 [29] = assay: Cell cycle arrest in human M21 cells assessed as accumulation at subG1 phase at 1.5 uM after 24 hrs by DAPI staining-based flow cytometry (reference value: 1.5%); assay type: functional
M21 [30] = assay: Induction DNA DSBs in human M21 cells assessed as increase in gamma H2AX foci at 0.75 uM incubated for 24 hrs by DAPI staining based immunocytochemistry; assay type: cell-based

Structure (SMILES): O=C(NCCCl)Nc1ccc(S(=O)(=O)Oc2ccc(F)cc2F)cc1
IC50 [1]: 9400 nM
IC50 (M21 [2]): 9600 nM
IC50 (HT-29): 9600 nM
IC50 (MCF7): 9300 nM
Activity (M21 [12]): 5.2%
Activity (M21 [13]): 13.4%
Activity (M21 [14]): 10%
Activity (M21 [15]): 71.4%

Structure (SMILES): O=C(NCCCl)Nc1ccc(S(=O)(=O)Oc2ccccc2[N+](=O)[O-])cc1
IC50 [1]: 2400 nM
IC50 (M21 [2]): 3900 nM
IC50 (HT-29): 5700 nM
IC50 (MCF7): 7400 nM
Activity (M21 [16]): 32.5%
Activity (M21 [17]): 43%
Activity (M21 [18]): 23.1%
Activity (M21 [19]): 1.4%
Activity (M21 [20]): Active

Structure (SMILES): Cc1cccc(C)c1OS(=O)(=O)c1ccc(NC(=O)NCCCl)cc1
IC50 [1]: 1100 nM
IC50 (M21 [2]): 2000 nM
IC50 (HT-29): 2800 nM
IC50 (MCF7): 3700 nM
Activity (M21 [21]): 31%
Activity (M21 [22]): 47.1%
Activity (M21 [23]): 20.3%
Activity (M21 [24]): 1.6%
Activity (M21 [25]): Active

Now those with a lower IC50 (HT-29), led by results:

IC50 (HT-29): 2300 nM
IC50 (MCF7): 3000 nM
Structure (SMILES): Cc1cc(C)c(OS(=O)(=O)c2ccc(NC(=O)NCCCl)cc2)cc1C
IC50 [1]: 1000 nM
IC50 (M21 [2]): 1700 nM
Activity (M21 [7]): 27.5%
Activity (M21 [8]): 43.8%
Activity (M21 [9]): 27%
Activity (M21 [10]): 1.7%
Activity (M21 [11]): Active

IC50 (HT-29): 1500 nM
IC50 (MCF7): 1700 nM
Structure (SMILES): O=C(NCCCl)Nc1ccc(S(=O)(=O)Oc2c(Cl)cc(Cl)cc2Cl)cc1
IC50 [1]: 1500 nM
IC50 (M21 [2]): 1300 nM
Activity (M21 [3]): 8.5%
Activity (M21 [4]): 11.6%
Activity (M21 [5]): 7.3%
Activity (M21 [6]): 72.6%

IC50 (HT-29): 230 nM
IC50 (MCF7): 24 nM
Structure (SMILES): CC[C@@]1(O)C(=O)OCc2c1cc1n(c2=O)Cc2cc3c(CN(C)C)c(O)ccc3nc2-1 [TOPOTECAN]
IC50 [1]: 180 nM
IC50 (M21 [2]): 1400 nM
Activity (M21 [26]): 6.4%
Activity (M21 [27]): 31.8%
Activity (M21 [28]): 60.4%
Activity (M21 [29]): 1.4%
Activity (M21 [30]): Active
